Assay results as given in doi:10.1101/2025.07.01.662609v1, “BtuJ1, a novel surface-exposed B12-binding protein in Bacteroidetes, functions as an extracellular vitamin reservoir that enhances fitness” (biorxiv, 2025).

Molecular target: T1, BtuJ1 (BT1491) (Bacteroides thetaiotaomicron, UniProt Q8A7N3)
T1 construct: gene BT_1491; mature part without lipid anchor residue (signal peptide cleaved between 21 and 22); His-tagged, pET28 NcoI/XhoI, E. coli BL21(DE3); modelled from Met29
T1 sequence (Q8A7N3 23-256): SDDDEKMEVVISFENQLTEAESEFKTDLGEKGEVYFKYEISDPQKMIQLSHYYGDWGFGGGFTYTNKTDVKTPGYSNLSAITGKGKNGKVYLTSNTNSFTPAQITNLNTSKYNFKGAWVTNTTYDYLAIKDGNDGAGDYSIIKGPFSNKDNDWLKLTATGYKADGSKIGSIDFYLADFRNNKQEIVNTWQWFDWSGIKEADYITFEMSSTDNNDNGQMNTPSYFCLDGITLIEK
Experiment: binding shown in supplementary figure, method not stated in main text
Conditions: AdoCbl added at 1:2 protein:corrinoid, then SEC in 10 mM Hepes, 100 mM NaCl, pH 7.5

SMILES: C/C1=C2/[N-][C@H]([C@H](CC(N)=O)[C@@]2(C)CCC(=O)NC[C@@H](C)OP(=O)([O-])O[C@H]2C(O)[C@@H](n3cnc4cc(C)c(C)cc43)O[C@@H]2CO)[C@]2(C)N=C(/C(C)=C3N=C(/C=C4N=C1[C@@H](CCC(N)=O)C\4(C)C)[C@@H](CCC(N)=O)[C@]\3(C)CC(N)=O)[C@@H](CCC(N)=O)[C@]2(C)CC(N)=O.[CH2-][C@H]1O[C@@H](n2cnc3c(N)ncnc32)[C@H](O)[C@@H]1O.[Co+3] (stereo partly shown) [AdoCbl, adenosylcobalamin]
- binding shown in supplementary figure, method not stated in main text: BtuJ1 also binds adenosylcobalamin, which has a bulkier upper ligand compared to other cobalamins
